Experimental data taken from publication PMC8621172, “Manipulating Estrogenic/Anti-Estrogenic Activity of Triphenylethylenes towards Development of Novel Anti-Neoplastic SERMs” (International Journal of Molecular Sciences, 2021).

What was measured:
MCF-7 cells = experiment: NCI growth inhibition on MCF-7 (single dose and five-dose, SRB); type: cell-based, human; conditions: for inhibition at 10 µM / GI50: Homo sapiens, MCF7; for GI50: MCF-7, five-dose assay, 48 h
Description: Compounds were submitted to the Developmental Therapeutics Program (DTP) of the National Cancer Institute (NCI). The program uses a panel of 60 human tumor cell lines representing nine tissue types, including leukemia, non-small cell lung cancer (NSCLC), melanoma, colon cancer, ovarian cancer, CNS cancer, renal cancer, prostate cancer, and breast cancer, to screen for potential new anti-cancer agents. […] Primary screening of synthesized compounds was performed by testing a single high dose of 10 µM in the full NCI-60 panel. The percent growth of treated cells relative to the no-drug control and relative to the time zero number of cells was measured, and a mean graph was provided. The percentage inhibition was then calculated by subtracting the values obtained from 100.
All compounds were subjected to the NCI in vitro disease-oriented human cells screening panel assay. The human tumor cell lines of the cancer-screening panel are grown in RPMI 1640 medium containing 5% fetal bovine serum and 2 mM L-glutamine. For a typical screening experiment, cells are inoculated into 96-well microtiter plates in 100 μL at plating densities ranging from 5000 to 40,000 cells/well depending on the doubling time of individual cell lines. After cell inoculation, the microtiter plates are incubated at 37 °C, 5% CO2, 95% air, and 100% relative humidity for 24 h prior to the addition of experimental drugs. After 24 h, two plates of each cell line are fixed in situ with TCA to represent a measurement of the cell population for each cell line at the time of drug addition. Experimental drugs are solubilized in dimethyl sulfoxide at 400-fold the desired final maximum test concentration and stored frozen prior to use. At the time of drug addition, an aliquot of frozen concentrate is thawed and diluted to twice the desired final maximum test concentration with complete medium containing 50 μg/mL gentamicin. Additional four, 10-fold, or ½ log serial dilutions are made to provide a total of five drug concentrations plus control. Aliquots of 100 μL of these different drug dilutions are added to the appropriate microtiter wells already containing 100 μL of medium, resulting in the required final drug concentrations. Following drug addition, the plates are incubated for an additional 48 h at 37 °C, 5% CO2, 95% air, and 100% relative humidity. For adherent cells, the assay is terminated by the addition of cold TCA. Cells are fixed in situ by the gentle addition of 50 μL of cold 50% (w/v) TCA (final concentration, 10% TCA) and incubated for 60 min at 4 °C. The supernatant is discarded, and the plates are washed five times with tap water and air-dried. Sulforhodamine B (SRB) solution (100 μL) at 0.4% (w/v) in 1% acetic acid is added to each well, and plates are incubated for 10 min at room temperature. After staining, unbound dye is removed by washing five times with 1% acetic acid, and the plates are air-dried. Bound stain is subsequently solubilized with a 10 mM trizma base, and the absorbance is read on an automated plate reader at a wavelength of 515 nm. For suspension cells, the methodology is the same except that the assay is terminated by fixing settled cells at the bottom of the wells by gently adding 50 μL of 80% TCA (final concentration, 16% TCA). Compounds are screened at a dose of 10 µM, hits showing mean growth inhibition over 60 cell lines >50% are escalated for 5-dose screening assay. To construct a dose-response curve, about 60 cell lines of nine tumor subpanels were incubated with five concentrations (0.01–100 μM) for each compound. Three response parameters (GI50, TGI, and LC50) were calculated for each cell line.

[1] = test system: Ishikawa endometrial adenocarcinoma cell line; experiment: Alkaline phosphatase (AlkP) activity in Ishikawa cells; type: cell-based, human; conditions: for Relative alkaline phosphatase activity: 72 h, DMSO set to 1
Description: Alkaline phosphatase (AlkP) activity in these human endometrial cancer cells is markedly stimulated by estrogens.
Because of the potential SERM character of the compounds tested, their estrogenic effects were studied in an endometrial-derived cell culture model, the human endometrial adenocarcinoma cell line Ishikawa. […] All compounds were screened at two concentrations, 0.1 and 1 µM. Its agonistic effect was compared to the vehicle control DMSO (data shown in Supplementary Materials). […] The four compounds were studied in a concentration range of 1 nM to 10 µM.
Estrogens stimulate the activity of alkaline phosphatase (AlkP) in Ishikawa cells (human endometrial adenocarcinoma cells; kindly provided by Prof. Masato Nishida, National Hospital Organization, Kasumigaura Medical Center, Japan). This enzyme activity is estimated by using the chromogen substrate (4-nitrophenylphosphate). […] The procedure was modified by Littlefield et al., 1990 [42].
After 72 h incubation, cells were harvested, washed twice with PBS, and incubated at −80 °C for about 30 min to lyse the cells. After thawing, the lysates were resuspended in reaction buffer (274 mM mannitol, 100 mM CAPS, 4 mM MgCl2, pH 10.4) containing 4 mM p-nitrophenylphosphate (NPP). After incubation for 1 h in the dark, AlkP activity was assayed by using the hydrolysis of p-nitrophenylphosphate to p-nitrophenol at pH 10.4 and the spectrometric determination of the kinetic of the product formation at 405 nm. All compounds were tested in technical triplicates and biological triplicates. Statistical analysis was performed by analysis of variance (ANOVA) and Tukey’s post-hoc test with the significance level of p < 0.05.

SMILES | inhibition at 10 µM (MCF-7 cells; 10 µM) | Relative alkaline phosphatase activity ([1]; 1 µM) | GI50 (MCF-7 cells) | also measured
COc1ccc(C(C)=C(c2ccc(Cl)cc2)c2ccc(OCCN3CCCCCC3)cc2)cc1 [Compound 14, E/Z-1-(2-{4-[1-(4-Chloro-phenyl)-2-(4-methoxy-phenyl)-propenyl]-phenoxy}-ethyl)-azepane] | 63.5% | 6.58 ± 2.24 | – | –
COc1ccc(C(C)=C(c2ccc(Cl)cc2)c2ccc(OCCCN(C)C)cc2)cc1F [Compound 15, E/Z-(3-{4-[1-(4-Chlorophenyl)-2-(3-fluoro-4-methoxyphenyl)-propenyl]-phenoxy}-propyl)-dimethyl-amine] | 87% | 0.86 ± 0.12 | – | –
COc1ccc(C(C)=C(c2ccc(Cl)cc2)c2ccc(OCCN3CCCC3)cc2)cc1F [Compound 16, E/Z-1-(2-{4-[1-(4-Chlorophenyl)-2-(3-fluoro-4-methoxyphenyl)-propenyl]-phenoxy}-ethyl)-pyrrolidine] | 90% | 0.98 ± 0.53 | 2.41 µM | –
COc1ccc(C(C)=C(c2ccc(Cl)cc2)c2ccc(OCCN3CCCCC3)cc2)cc1F [Compound 17, E/Z-1-(2-{4-[1-(4-Chlorophenyl)-2-(3-fluoro-4-methoxyphenyl)-propenyl]-phenoxy}-ethyl)-piperidine] | 85% | 1.31 ± 0.41 | 3.34 µM | –
COc1ccc(C(C)=C(c2ccc(Cl)cc2)c2ccc(OCCN3CCOCC3)cc2)cc1F [Compound 18, E/Z-4-(2-{4-[1-(4-Chlorophenyl)-2-(3-fluoro-4-methoxyphenyl)-propenyl]-phenoxy}-ethyl)-morpholine] | – | 1.01 ± 0.24 | – | Growth Inhibition on MCF-7 (%) (MCF-7 cells; 10 µM): No inhibition
COc1ccc(C(C)=C(c2ccc(Cl)cc2)c2ccc(OCCN3CCCCCC3)cc2)cc1F [Compound 19, E/Z-1-(2-{4-[1-(4-Chlorophenyl)-2-(3-fluoro-4-methoxyphenyl)-propenyl]-phenoxy}-ethyl)-azepane] | 75.9% | – | 3.59 µM | Relative alkaline phosphatase activity ([1]; 1 nM): 1.02 ± 0.13; Relative alkaline phosphatase activity ([1]; 10 nM): 1.06 ± 0.11; Relative alkaline phosphatase activity ([1]; 100 nM): 1.75 ± 0.08; Relative alkaline phosphatase activity ([1]; 10 µM): 0.04 ± 0.04; effect on AlkP activity (in words) ([1]; 72 h treatment, 5-dose assay 1 nM to 10 µM): increase the AlkP activity in a dose-pendent manner
COc1ccc(C(C)=C(c2ccc(Cl)cc2)c2ccc(OCCN(C)C)cc2)cc1F [Compound 20, E/Z-(2-{4-[1-(4-Chlorophenyl)-2-(3-fluoro-4-methoxyphenyl)-propenyl]-phenoxy}-ethyl)-dimethyl-amine] | 68.2% | 1.12 ± 0.46 | – | –
CCN(CC)CCOc1ccc(C(=C(C)c2ccc(OC)c(F)c2)c2ccc(Cl)cc2)cc1 [Compound 21, E/Z-(2-{4-[1-(4-Chlorophenyl)-2-(3-fluoro-4-methoxyphenyl)-propenyl]-phenoxy}-ethyl)-diethyl-amine] | 29.7% | 0.90 ± 0.13 | – | –
